This note sets out measurements from article PMC4698665, “Functional Analysis of Esterase TCE2 Gene from Tetranychus cinnabarinus (Boisduval) involved in Acaricide Resistance” (Scientific Reports, 2016).

The target in data set [1] is T1, recombinant TCE2 (Tetranychus cinnabarinus, UniProt B3TFG7).
T1 construct: pCold II (vector His tag), E. coli BL21(DE3), Ni-NTA purified; about 63 kDa
T1 sequence (B3TFG7 24-560): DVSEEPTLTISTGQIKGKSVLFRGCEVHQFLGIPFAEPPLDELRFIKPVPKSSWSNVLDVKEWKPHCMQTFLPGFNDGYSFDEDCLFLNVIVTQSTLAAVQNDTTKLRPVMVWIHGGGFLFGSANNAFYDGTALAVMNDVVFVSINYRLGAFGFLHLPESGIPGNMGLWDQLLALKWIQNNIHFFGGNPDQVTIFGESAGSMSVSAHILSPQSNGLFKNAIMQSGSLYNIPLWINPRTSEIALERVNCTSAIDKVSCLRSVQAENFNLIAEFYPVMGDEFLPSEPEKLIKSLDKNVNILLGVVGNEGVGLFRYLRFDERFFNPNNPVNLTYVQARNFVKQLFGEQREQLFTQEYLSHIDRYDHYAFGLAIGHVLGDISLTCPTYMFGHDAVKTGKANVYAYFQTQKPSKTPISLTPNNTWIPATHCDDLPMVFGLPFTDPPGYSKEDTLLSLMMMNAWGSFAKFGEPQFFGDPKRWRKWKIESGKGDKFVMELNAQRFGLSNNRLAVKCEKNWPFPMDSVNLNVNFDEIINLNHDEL
As to the kind of experiment: Dixon plot, colorimetric esterase assay (Fast blue B). It counts as biochemical.

The target in data set [2] is T1, recombinant TCE2. As to the kind of experiment: colorimetric esterase inhibition assay, microplate (Fast blue B, […] nm). It counts as biochemical.
Substrate in the data set “purified protein”: CC(=O)Oc1cccc2ccccc12
As to the kind of experiment: purified protein. It counts as biochemical, Tetranychus cinnabarinus. The following applies: 0.04 M PBS pH 7.4, 30 °C, 10 min.

`COCCOC(=O)C(C#N)(C(=O)c1ccccc1C(F)(F)F)c1ccc(C(C)(C)C)cc1` (stereo not drawn) [cyflumetofen]: the Ki (in general, a dissociation constant, usually derived from enzyme kinetics or from competition with a known ligand) at recombinant TCE2 [1] was determined as 182 ± 17.7 µM. On recombinant TCE2 [2], the IC50 (in general, the concentration at which inhibition is half-maximal) was 129 ± 12.7 µM.
For `CC1(C)C(C(=O)OC(C#N)c2cccc(Oc3ccccc3)c2)C1(C)C` (stereo not drawn) [fenpropathrin], in that order: 356 ± 35.4 µM and 235 ± 15.3 µM.

B1: recombinant TCE2 (Tetranychus cinnabarinus) (protein)
chain: DVSEEPTLTISTGQIKGKSVLFRGCEVHQFLGIPFAEPPLDELRFIKPVPKSSWSNVLDVKEWKPHCMQTFLPGFNDGYSFDEDCLFLNVIVTQSTLAAVQNDTTKLRPVMVWIHGGGFLFGSANNAFYDGTALAVMNDVVFVSINYRLGAFGFLHLPESGIPGNMGLWDQLLALKWIQNNIHFFGGNPDQVTIFGESAGSMSVSAHILSPQSNGLFKNAIMQSGSLYNIPLWINPRTSEIALERVNCTSAIDKVSCLRSVQAENFNLIAEFYPVMGDEFLPSEPEKLIKSLDKNVNILLGVVGNEGVGLFRYLRFDERFFNPNNPVNLTYVQARNFVKQLFGEQREQLFTQEYLSHIDRYDHYAFGLAIGHVLGDISLTCPTYMFGHDAVKTGKANVYAYFQTQKPSKTPISLTPNNTWIPATHCDDLPMVFGLPFTDPPGYSKEDTLLSLMMMNAWGSFAKFGEPQFFGDPKRWRKWKIESGKGDKFVMELNAQRFGLSNNRLAVKCEKNWPFPMDSVNLNVNFDEIINLNHDEL
notes: pCold II (vector His tag), E. coli BL21(DE3), Ni-NTA purified; about 63 kDa
On to B1, for which, in the data set “purified protein”, the Km (in general, the substrate concentration at which the rate is half of its maximum) worked out at 30.5 ± 5.9 µM and the Vmax (usually the top rate of the reaction or transport when substrate is in excess) was 0.448 µmol/min/mg.
